Earlier results in US8993551B2, “Composition for the regulation of the human immune system and the prevention and treatment of diseases thereof” (priority 2002, dated 2015).
Like-named read-outs stand apart in the source and are kept apart here.

Columns and labels:
[1] = of total dietary amount consumed / of intake, mammals
[2] = system: human breast cancer cells
[3] = system: LNCaP human prostate cancer cells
[4] = system: HT-29 human colon cancer cells
[5] = system: CD4 lymphocyte count; details: AIDS patients

Compound	intestinal absorption [1]	inhibition of breast cancer cell growth ([2]; after 3 days) [%]	inhibition of breast cancer cell growth ([2]; after 5 days) [%]	increase in rate of cell death ([2]; breast cancer cells) [%]	inhibition of prostate cancer cell growth [3] [%]	increase in cell death ([3]; prostate cancer cells) [%]	reduction in cell growth [4] [%]	CD4 lymphocyte count [5]
CC[C@H](CC[C@@H](C)[C@H]1CC[C@H]2[C@@H]3CC=C4C[C@@H](O)CC[C@]4(C)[C@H]3CC[C@]12C)C(C)C [beta-sitosterol]	~5%	66	80	600	24	400	55	maintain CD4 lymphocyte count
CC(C)CCC[C@@H](C)[C@H]1CC[C@H]2[C@@H]3CC=C4C[C@@H](O)CC[C@]4(C)[C@H]3CC[C@]12C [cholesterol]	45-54%							
